From ChEMBL document CHEMBL5131429, “Synthesis and antifungal evaluation of phenol-derived bis(indolyl)methanes combined with FLC against Candida albicans” (Bioorg Med Chem Lett, 2022)
Converted amounts (≈) assume the structure as drawn. The source made the active and inactive calls. The rule behind the calls is not given here.

Key:
Candida albicans [1] = assay: Induction of ROS production in Candida albicans at 2 ug/ml in presence of 1 ug/mL fluconazole by DCFH-DA assay; assay type: functional; conditions: dose 2.0 µg/ml
Candida albicans [2] = assay: Antifungal activity against Candida albicans CA558 by microdilution method; assay type: functional
[3] = Cytotoxicity against human 16HBE by MTS assay; assay type: toxicity, cell-based; conditions: 16HBE14o- cells
Candida albicans [4] = assay: Antifungal activity against Candida albicans CA23 assessed as fractional inhibitory concentration index in presence of fluconazole by microdilution method; assay type: functional
Candida albicans [5] = assay: Antifungal activity against Candida albicans CA558 assessed as fractional inhibitory concentration index in presence of fluconazole by microdilution method; assay type: functional
Candida albicans [6] = assay: Antifungal activity against Candida albicans CA3511 by microdilution method; assay type: functional
Candida albicans [7] = assay: Antifungal activity against Candida albicans CA23 in presence of fluconazole by microdilution method; assay type: functional
Candida albicans [8] = assay: Antifungal activity against Candida albicans CA187 assessed as fractional inhibitory concentration index in presence of fluconazole by microdilution method; assay type: functional
Candida albicans [9] = assay: Antifungal activity against Candida albicans CA3816 by microdilution method; assay type: functional
Candida albicans [10] = assay: Antifungal activity against Candida albicans CA5408 by microdilution method; assay type: functional
Candida albicans [11] = assay: Induction of mitochondrial membrane potential loss in Candida albicans at 2 ug/ml after 16 hrs in presence of 1 ug/mL fluconazole by JC-1 staining based fluorescence microplate reader; assay type: functional, organism-based; conditions: dose 2.0 µg/ml
Candida albicans [12] = assay: Antifungal activity against Candida albicans CA3511 assessed as fractional inhibitory concentration index in presence of fluconazole by microdilution method; assay type: functional
Candida albicans [13] = assay: Antifungal activity against Candida albicans CA602 by microdilution method; assay type: functional
Candida albicans [14] = assay: Antifungal activity against Candida albicans ATCC14053 assessed as decrease in number of hyphae at 2 ug/mL in presence of 1 ug/mL fluconazole by microscopic analysis; assay type: functional, organism-based; conditions: dose 2.0 µg/ml
Candida albicans [15] = assay: Antifungal activity against Candida albicans CA800 by microdilution method; assay type: functional
Candida albicans [16] = assay: Antifungal activity against Candida albicans CA23 by microdilution method; assay type: functional
Candida albicans [17] = assay: Antifungal activity against Candida albicans CA800 in presence of fluconazole by microdilution method; assay type: functional
Candida albicans [18] = assay: Antifungal activity against Candida albicans SC5314 by microdilution method; assay type: functional
Candida albicans [19] = assay: Induction of mitochondrial membrane potential loss in Candida albicans at 2 ug/ml after 16 hrs by JC-1 staining based fluorescence microplate reader; assay type: functional, organism-based; conditions: dose 2.0 µg/ml
Candida albicans [20] = assay: Antifungal activity against Candida albicans SC5314 in presence of fluconazole by microdilution method; assay type: functional
Candida albicans [21] = assay: Antifungal activity against Candida albicans CA5408 assessed as fractional inhibitory concentration index in presence of fluconazole by microdilution method; assay type: functional
Candida albicans [22] = assay: Antifungal activity against Candida albicans CA3816 assessed as fractional inhibitory concentration index in presence of fluconazole by microdilution method; assay type: functional
Candida albicans [23] = assay: Antifungal activity against Candida albicans ATCC14053 assessed as fractional inhibitory concentration index in presence of fluconazole by microdilution method; assay type: functional
Candida albicans [24] = assay: Antifungal activity against Candida albicans CA187 by microdilution method; assay type: functional
Candida albicans [25] = assay: Antifungal activity against Candida albicans CA5408 in presence of fluconazole by microdilution method; assay type: functional
Candida albicans [26] = assay: Antifungal activity against Candida albicans CA558 in presence of fluconazole by microdilution method; assay type: functional
Candida albicans [27] = assay: Effect on cell membrane permeability ib Candida albicans assessed as cell membrane damage at 2 ug/ml measured after 8 to 24 hrs in presence of 1 ug/mL fluconazole by PI staining based fluorescence analysis; assay type: functional; conditions: dose 2.0 µg/ml, time 8-24 hrs
Candida albicans [28] = assay: Antifungal activity against Candida albicans CA187 in presence of fluconazole by microdilution method; assay type: functional
Candida albicans [29] = assay: Antifungal activity against Candida albicans at 2 ug/mL in presence of 1 ug/mL fluconazole by Time-kill curve assay; assay type: functional, organism-based; conditions: dose 2.0 µg/ml
[30] = Cytotoxicity against PBMC (unknown origin) by MTT assay; assay type: toxicity, cell-based
Candida albicans [31] = assay: Antifungal activity against Candida albicans SC5314 assessed as fractional inhibitory concentration index in presence of fluconazole by microdilution method; assay type: functional
Candida albicans [32] = assay: Antifungal activity against Candida albicans ATCC14053 in presence of fluconazole by microdilution method; assay type: functional
Candida albicans [33] = assay: Antifungal activity against Candida albicans ATCC14053 by microdilution method; assay type: functional
Candida albicans [34] = assay: Antifungal activity against Candida albicans CA3511 in presence of fluconazole by microdilution method; assay type: functional
Candida albicans [35] = assay: Antifungal activity against Candida albicans CA602 assessed as fractional inhibitory concentration index in presence of fluconazole by microdilution method; assay type: functional
Candida albicans [36] = assay: Antifungal activity against Candida albicans CA800 assessed as fractional inhibitory concentration index in presence of fluconazole by microdilution method; assay type: functional
Candida albicans [37] = assay: Antifungal activity against Candida albicans ATCC14053 assessed as shortened length of hyphae at 2 ug/mL in presence of 1 ug/mL fluconazole by microscopic analysis; assay type: functional, organism-based; conditions: dose 2.0 µg/ml
Candida albicans [38] = assay: Antifungal activity against Candida albicans CA602 in presence of fluconazole by microdilution method; assay type: functional
Candida albicans [39] = assay: Antifungal activity against Candida albicans CA3816 in presence of fluconazole by microdilution method; assay type: functional

Question: Which Activity (Candida albicans [1]) does the source give for Oc1c(Br)cccc1C(c1c[nH]c2ccccc12)c1c[nH]c2ccccc12 here?
Answer: Its Activity is “Active”.

Question: What about the MIC80 (Candida albicans [2]) of the same molecule?
Answer: Its MIC80 is > 200 µg/mL.

Question: And the CC50 [3]?
Answer: Its CC50 is 35.6 µg/mL (≈ 85.3 µM).

Question: And the “fractional inhibitory concentration index (FICI)” value (Candida albicans [4])?
Answer: The value was 0.02.

Question: What about the “fractional inhibitory concentration index (FICI)” value (Candida albicans [5]) of the same molecule?
Answer: The value was 0.03.

Question: What about the MIC80 (Candida albicans [6]) of the same molecule?
Answer: Its MIC80 is > 200 µg/mL.

Question: What about the MIC80 (Candida albicans [7]) of the same molecule?
Answer: Its MIC80 is 5.82 µg/mL.

Question: What about the “fractional inhibitory concentration index (FICI)” value (Candida albicans [8]) of the same molecule?
Answer: Its value is 0.02.

Question: And the MIC80 (Candida albicans [9])?
Answer: The MIC80 was > 200 µg/mL.

Question: And the MIC80 (Candida albicans [10])?
Answer: Its MIC80 is > 200 µg/mL.

Question: And the Activity (Candida albicans [11])?
Answer: Its Activity is “Active”.

Question: What about the “fractional inhibitory concentration index (FICI)” value (Candida albicans [12]) of the same molecule?
Answer: Its value is 0.03.

Question: And the MIC80 (Candida albicans [13])?
Answer: The MIC80 was > 200 µg/mL.

Question: What about the Activity (Candida albicans [14]) of the same molecule?
Answer: Its Activity is “Active”.

Question: What about the MIC80 (Candida albicans [15]) of the same molecule?
Answer: The MIC80 was > 200 µg/mL.

Question: And the MIC80 (Candida albicans [16])?
Answer: Its MIC80 is > 200 µg/mL.

Question: And the MIC80 (Candida albicans [17])?
Answer: The MIC80 was 2.63 µg/mL.

Question: And the MIC80 (Candida albicans [18])?
Answer: Its MIC80 is > 200 µg/mL.

Question: What about the Activity (Candida albicans [19]) of the same molecule?
Answer: The Activity was “Active”.

Question: And the MIC80 (Candida albicans [20])?
Answer: The MIC80 was 1.22 µg/mL.

Question: And the “fractional inhibitory concentration index (FICI)” value (Candida albicans [21])?
Answer: The value was 0.01.

Question: And the “fractional inhibitory concentration index (FICI)” value (Candida albicans [22])?
Answer: The value was 0.01.

Question: What about the “fractional inhibitory concentration index (FICI)” value (Candida albicans [23]) of the same molecule?
Answer: The value was 0.01.

Question: And the MIC80 (Candida albicans [24])?
Answer: Its MIC80 is > 200 µg/mL.

Question: And the MIC80 (Candida albicans [25])?
Answer: Its MIC80 is 1.33 µg/mL.

Question: What about the MIC80 (Candida albicans [26]) of the same molecule?
Answer: The MIC80 was 5.61 µg/mL.

Question: What about the Activity (Candida albicans [27]) of the same molecule?
Answer: The Activity was “Active”.

Question: And the MIC80 (Candida albicans [28])?
Answer: The MIC80 was 4.5 µg/mL.

Question: What about the Activity (Candida albicans [29]) of the same molecule?
Answer: The Activity was “Active”.

Question: And the CC50 [30]?
Answer: Its CC50 is 32.7 µg/mL (≈ 78.5 µM).

Question: And the “fractional inhibitory concentration index (FICI)” value (Candida albicans [31])?
Answer: Its value is 0.04.

Question: And the MIC80 (Candida albicans [32])?
Answer: The MIC80 was 1.37 µg/mL.

Question: And the MIC80 (Candida albicans [33])?
Answer: The MIC80 was > 200 µg/mL.

Question: And the MIC80 (Candida albicans [34])?
Answer: Its MIC80 is 5.96 µg/mL.

Question: What about the “fractional inhibitory concentration index (FICI)” value (Candida albicans [35]) of the same molecule?
Answer: Its value is 0.03.

Question: And the “fractional inhibitory concentration index (FICI)” value (Candida albicans [36])?
Answer: Its value is 0.01.

Question: And the Activity (Candida albicans [37])?
Answer: The Activity was “Active”.

Question: And the MIC80 (Candida albicans [38])?
Answer: The MIC80 was 5.69 µg/mL.

Question: What about the MIC80 (Candida albicans [39]) of the same molecule?
Answer: Its MIC80 is 1.38 µg/mL.
